We go through five compounds from article PMC10820070, “Hydroxylated Tetramethoxyflavone Affects Intestinal Cell Permeability and Inhibits Cytochrome P450 Enzymes” (Molecules, 2024).

Series [1] concerns the target CYP3A4 (Homo sapiens, UniProt P08684). The experiment in a line: CYP inhibition assay (P450 Baculosomes/Vivid substrate, fluorescence), 10-dose IC50.
The subject of series [2] is CYP1A2, CYP2C9, CYP2C19 (range over the three). The experiment in a line: CYP inhibition assay, summary over the enzyme panel. It is filed as biochemical. The conditions noted are these: human, probe Vivid substrates; range over CYP1A2, 2C9 and 2C19; dose-dependent.
Series [3] concerns the target T1, CYP2C19 (Homo sapiens, UniProt P33261).
T1 construct: purchased Invitrogen Corp. (Madison, WI, USA); host or cells: insect cells (baculovirus)
The experiment in a line: CYP inhibition assay (P450 Baculosomes/Vivid substrate, fluorescence), 10-dose IC50. It is filed as biochemical. The conditions noted are these: mean ± S.D.; ND: Not Detected.

Series [4] concerns Caco-2 cell monolayer. Nature of the series: Transport of TMFs across Caco-2 cell monolayer, apical to basolateral. The series is classed as in vitro ADME, human. Particulars: 300 μg/mL TMF loaded on apical side, mean ± S.D. Here is the method:
(§1) Caco-2 cells were cultured in Dulbecco’s modified Eagle’s medium (DMEM; GIBCO, Carlsbad, CA, USA) supplemented with 10% fetal bovine serum (GIBCO), 1% nonessential amino acid solution, and antibiotics (100 U/mL penicillin and 100 µg/mL streptomycin from GIBCO) with a minor modification according to Lu. Cells were grown in an incubator with 5% CO2 and 95% humidity at 37 °C, with medium replaced every 2–3 days. The tests were carried out using cells from passages 25–35. Transwell inserts with a polycarbonate membrane (diameter 1.2 cm, pore size 0.4 μm; Corning Costar Co., Corning, NY, USA) were used in 12-well plates. Caco-2 cells were planted at 5 × 10^5 cells/cm^2 on the membrane inserts, and 0.5 and 1.5 mL of culture media were placed on the apical and basolateral sides, respectively. The medium was changed three times a week, and the Caco-2 cells used in the studies had been cultured in the Transwells for approximately 21 days. The integrity of the cell layer was assessed using Millicell ERS equipment by measuring transepithelial electrical resistance (TEER) values (Millipore Co., Bedford, MA, USA). Monolayers with TEER values greater than 400 Ωcm^2 were used for transport and absorption studies.
(§2) Transport experiments were conducted using modified methodologies from the literature. Before adding the test solution, the apical and basolateral sides of the Coco-2 cell monolayer grown in Transwell inserts were washed three times with Hank’s balanced salt solution (GIBCO). The apical-to-basolateral permeability was measured by adding 0.5 mL of the test solution containing 300 μg/mL TMFs and 1.5 mL of HBSS to the apical and basolateral sides, respectively, and incubating at 37 °C for 0.5, 1, 2, and 4 h. The concentration of TMF utilized was determined using the Caco-2 cell viability test findings. TMF was dissolved and diluted with HBSS before the experiment began. The apical and basolateral solutions were collected after incubation for 0.5, 1, 2, and 4 h, and the concentration of TMF was determined using LC-MS. The apparent permeability coefficient (Papp in cm/s) was calculated over a four-hour duration using Equation (1):Papp = (V/AC0) × (dC/dt)(1) where V is the volume of solution on the basolateral side (1.5 mL); A is the membrane surface area (1.12 cm^2); C0 is the initial concentration on the apical side; and dC/dt is the change in concentration in the basolateral side over time.
(§3) The transport efficiency (%) was calculated using Equation (2):Transport efficiency (%) = (Cbs)/(Cas) × 100 (%)(2) where Cbs is the concentration of TMF transported in the basolateral side; and Cas is the initial concentration of TMF added to the apical side.

Assay in series [5]: as above
It is filed as in vitro ADME, human. The conditions noted are these: human, Caco-2, calculated over four hours, read-out: apparent permeability coefficient (Papp). Here is the method: as §1, §2, §3

For series [6], the target named is CYP2C9 (Homo sapiens, UniProt P11712). Nature of the series: CYP inhibition assay (P450 Baculosomes/Vivid substrate, fluorescence), 10-dose IC50.
The target of series [7] is T2, CYP1A2 (Homo sapiens, UniProt P05177).
T2 sequence (P05177 2-516 limits assumed): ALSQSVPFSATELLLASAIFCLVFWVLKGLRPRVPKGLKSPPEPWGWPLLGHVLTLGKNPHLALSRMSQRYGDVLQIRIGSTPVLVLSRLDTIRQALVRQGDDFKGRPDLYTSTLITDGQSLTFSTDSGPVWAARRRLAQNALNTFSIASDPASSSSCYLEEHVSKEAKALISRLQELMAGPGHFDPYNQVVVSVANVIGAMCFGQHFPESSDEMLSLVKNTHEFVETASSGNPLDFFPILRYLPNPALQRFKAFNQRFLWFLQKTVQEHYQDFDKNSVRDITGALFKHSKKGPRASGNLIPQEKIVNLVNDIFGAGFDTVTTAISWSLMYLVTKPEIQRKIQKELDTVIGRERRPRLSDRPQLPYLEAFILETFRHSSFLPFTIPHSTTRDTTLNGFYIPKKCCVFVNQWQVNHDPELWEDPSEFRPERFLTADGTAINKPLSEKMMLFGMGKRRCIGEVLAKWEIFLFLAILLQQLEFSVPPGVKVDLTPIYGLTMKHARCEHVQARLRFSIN
The series is described as above.

Series [8] relates to cytochrome P450s (CYP) 1A2. More on the design: method as in PMID 22056445. Particulars: in vitro; read-out: IC50 against CYP1A2; cited from earlier work.
Series [9] concerns cytochrome P450s (CYP) 3A4. More on the design: method as in PMID 22056445. The conditions noted are these: in vitro; read-out: IC50 against CYP3A4; cited from earlier work.
The target in series [10] is T3, CYP2D6 (Homo sapiens, UniProt P10635).
T3 construct: purchased Invitrogen Corp. (Madison, WI, USA); host or cells: insect cells (baculovirus)
Nature of the series: CYP inhibition assay (P450 Baculosomes/Vivid substrate, fluorescence), 10-dose IC50. The series is classed as biochemical. The conditions noted are these: mean ± S.D.; ND: Not Detected.

“And” between values parts separate entries of the source, which are not always exact repeats. Equal entries are not always repeated. Marks after values point to notes of the source that are not given here.

Chain of CYP2C9 (P11712 whole entry): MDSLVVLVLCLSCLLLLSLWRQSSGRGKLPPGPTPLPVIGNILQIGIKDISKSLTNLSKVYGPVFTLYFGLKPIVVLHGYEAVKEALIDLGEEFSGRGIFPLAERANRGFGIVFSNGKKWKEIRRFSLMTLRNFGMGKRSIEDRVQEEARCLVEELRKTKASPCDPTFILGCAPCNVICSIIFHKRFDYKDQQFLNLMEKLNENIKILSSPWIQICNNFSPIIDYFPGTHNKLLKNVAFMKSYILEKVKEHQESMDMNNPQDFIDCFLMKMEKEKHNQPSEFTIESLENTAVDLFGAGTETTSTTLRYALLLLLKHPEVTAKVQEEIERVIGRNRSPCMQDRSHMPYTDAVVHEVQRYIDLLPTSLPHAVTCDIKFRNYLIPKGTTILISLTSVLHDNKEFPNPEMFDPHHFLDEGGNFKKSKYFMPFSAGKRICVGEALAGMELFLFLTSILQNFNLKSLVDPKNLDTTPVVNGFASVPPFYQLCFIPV
Chain of CYP3A4 (P08684 2-503 limits assumed): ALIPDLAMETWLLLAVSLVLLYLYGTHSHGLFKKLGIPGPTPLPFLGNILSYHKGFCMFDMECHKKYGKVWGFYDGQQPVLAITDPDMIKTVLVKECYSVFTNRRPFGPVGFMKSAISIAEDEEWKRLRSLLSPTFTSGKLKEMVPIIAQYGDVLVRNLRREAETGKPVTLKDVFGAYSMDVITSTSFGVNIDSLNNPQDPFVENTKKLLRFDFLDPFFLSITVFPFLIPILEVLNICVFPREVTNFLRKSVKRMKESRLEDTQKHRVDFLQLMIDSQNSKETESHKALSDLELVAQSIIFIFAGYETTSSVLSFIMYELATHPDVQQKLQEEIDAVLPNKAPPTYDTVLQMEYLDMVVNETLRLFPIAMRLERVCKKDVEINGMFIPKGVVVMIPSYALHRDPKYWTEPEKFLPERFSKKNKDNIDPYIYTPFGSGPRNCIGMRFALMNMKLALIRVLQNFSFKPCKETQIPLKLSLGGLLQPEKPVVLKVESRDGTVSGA
T1 sequence (P33261 whole entry): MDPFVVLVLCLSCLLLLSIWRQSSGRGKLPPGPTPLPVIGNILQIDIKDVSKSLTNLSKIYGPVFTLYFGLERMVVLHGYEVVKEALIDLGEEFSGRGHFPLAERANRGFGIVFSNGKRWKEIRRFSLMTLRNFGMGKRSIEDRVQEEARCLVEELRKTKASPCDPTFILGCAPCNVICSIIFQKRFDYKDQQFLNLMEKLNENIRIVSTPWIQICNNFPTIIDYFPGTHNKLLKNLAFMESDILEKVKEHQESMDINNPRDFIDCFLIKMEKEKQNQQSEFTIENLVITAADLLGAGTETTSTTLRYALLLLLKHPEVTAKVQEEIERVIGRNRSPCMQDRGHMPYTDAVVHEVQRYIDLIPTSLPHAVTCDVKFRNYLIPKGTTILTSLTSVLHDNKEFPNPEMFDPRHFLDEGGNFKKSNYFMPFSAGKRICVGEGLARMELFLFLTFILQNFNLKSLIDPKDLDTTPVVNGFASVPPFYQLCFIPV
T3 sequence (P10635 whole entry): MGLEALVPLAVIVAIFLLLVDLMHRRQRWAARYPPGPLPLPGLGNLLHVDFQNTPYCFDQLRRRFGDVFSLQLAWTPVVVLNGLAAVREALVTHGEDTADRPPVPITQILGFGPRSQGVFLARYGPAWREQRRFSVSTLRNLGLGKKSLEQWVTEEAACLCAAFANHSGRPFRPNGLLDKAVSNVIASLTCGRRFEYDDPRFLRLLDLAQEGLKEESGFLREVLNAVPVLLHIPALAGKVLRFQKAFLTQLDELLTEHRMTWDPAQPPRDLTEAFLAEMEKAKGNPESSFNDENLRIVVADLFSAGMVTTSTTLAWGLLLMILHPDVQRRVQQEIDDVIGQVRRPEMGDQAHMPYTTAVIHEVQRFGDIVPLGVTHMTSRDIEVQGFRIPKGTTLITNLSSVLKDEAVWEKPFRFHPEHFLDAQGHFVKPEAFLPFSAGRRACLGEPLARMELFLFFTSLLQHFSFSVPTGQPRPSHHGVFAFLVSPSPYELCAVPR

As to `COc1ccc(-c2cc(=O)c3ccc(OC)c(OC)c3o2)cc1OC` [78-TMF, 3′,4′,7,8-tetramethoxyflavone], the half-maximal inhibitory concentration (IC50) in series [1] was 108 ± 6.31 µM; in series [3] it was 1.85 ± 0.14 µM; in series [6], 1.49 ± 0.16 µM; in series [7], 0.79 ± 0.12 µM. The compound also showed a concentration for half-maximal inhibition (IC50) at 25 min in [2] of 0.79 to 1.85 µM. Also, the “Transport Efficiency (%)” value in [4] (1 h) was 30.49 ± 0.05 ^c** %; in [4] (2 h), 33.98 ± 0.75 ^b %; in series [4] (4 h), 37.58 ± 0.11% and 37.58 ± 2.11 ^a %. The Papp at 4 h, 300 μg/mL in series [5] is 8.83 ×10⁻⁶ cm/s.
As for `COc1cc(-c2cc(=O)c3c(O)c(OC)c(OC)c(OC)c3o2)ccc1O` [8-methoxycirsilineol, 4′,5-dihydroxy-3′,6,7,8-tetramethoxy flavone], the IC50 in series [8] is 2.41 µM; in series [9], 1.71 µM.
With `COc1ccc2c(=O)c(O)c(-c3cc(OC)c(OC)cc3OC)oc2c1` [3H7-TMF, 3-hydroxy-2′,4′,5′,7-tetramethoxyflavone], the IC50 in series [10] was found to be 2.28 ± 0.46 µM; in series [1], 0.15 ± 0.07 µM; in [3], 14.8 ± 3.15 µM; in series [6] it was 18.3 ± 8.93 µM; in series [7] it was 15.5 ± 1.95 µM. In addition, the “Transport Efficiency (%)” value in [4] (1 h) is 37.82 ± 0.07 ^c %; in [4] (2 h), 41.96 ± 1.14 ^b %; in series [4] (4 h), 46% and 46.29 ± 2.16 ^a %. Also, the Papp at 4 h, 300 μg/mL in series [5] was 19.5 ×10⁻⁶ cm/s.
For the compound `COc1ccc2oc(-c3cc(OC)c(OC)cc3OC)c(O)c(=O)c2c1` [3H6-TMF, 3-hydroxy-2′,4′,5′,6-tetramethoxyflavone], the IC50 in series [10] was 95.5 ± 3.21 µM; in series [1] it was 0.44 ± 0.12 µM; in series [3] it was 10.2 ± 2.47 µM; in [6], 8.03 ± 3.75 µM; in [7], 20.6 ± 0.98 µM. The “Transport Efficiency (%)” value in series [4] (1 h) is 25.42 ± 1.92 ^c %; in [4] (2 h), 33.27 ± 2.59 ^b %; in series [4] (4 h), 39.43 ± 2.50% and 39% and 39.43 ± 3.50 ^a %. Further, the Papp at 4 h, 300 μg/mL in series [5] is 17.4 ×10⁻⁶ cm/s.
On to `COc1cc(OC)c2c(=O)cc(-c3ccc(OC)c(OC)c3)oc2c1` [57-TMF, 3′,4′,5,7-tetramethoxyflavone], for which the IC50 worked out at 3.56 ± 1.23 µM in series [1], 62.5 ± 2.12 µM in series [6] and 35.6 ± 12.3 µM in series [7]. In addition, the “Transport Efficiency (%)” value in series [4] (1 h) was 22.48 ± 3.90 ^c %; in [4] (2 h), 33.03 ± 0.46 ^b %; in [4] (4 h) it was 34.00 ± 0.01% and 34.00 ± 1.81 ^ab %. Besides, the Papp at 4 h, 300 μg/mL in series [5] is 14.3 ×10⁻⁶ cm/s.
